Legend:
[1] = tested on: patients with hypertension and hyperlipidemia; test: Clinical test of combined vs single administration: change of sitDBP after 8 weeks; assay type: in vivo, human; conditions: valsartan 160 mg and/or rosuvastatin 20 mg
Description: (§1) The following tests were performed for patients with hypertension and hyperlipidemia to evaluate the efficacy and safety of the combined administration of 160 mg of valsartan and 20 mg of rosuvastatin in comparison with single administration of each of them.
(§2) A screening inspection was conducted for the subjects, who were 20- to 80-year-old patients suffering from hypertension and hyperlipidemia, to ascertain whether they met the selection/exclusion criteria, and administration of the drugs for treating hypertension and hyperlipidemia, which the subjects had taken, was stopped. All the patients who passed the screening inspection were subjected to Therapeutic Lifestyle Change (TLC) for 4 to 6 weeks, and their blood pressure and fasting serum lipid level were measured finally in the measurement 2 (0 week) visit. If the measured values were recognized as suitable to the following criteria, the patient was randomly assigned to one group of the four (4) treatment groups. […]
(§3) According to random assignment, each subject was assigned with the same probability to one of a total of four groups consisting of one combined administration group (group 1), two single administration groups (groups 2 and 3) and one placebo group (group 4) as shown in the following table. […] The visit window was±4 days at each visit, and the timing of visit was determined with the standard of 0 week. […]

[2] = tested on: patients with hypertension and hyperlipidemia; test: Clinical test of combined vs single administration: change of LDL-C after 8 weeks; assay type: in vivo, human; conditions: valsartan 160 mg and/or rosuvastatin 20 mg
Description: as §1, §2, §3

Structure (SMILES)	average amount of change of sitDBP from the baseline (Least Square Mean) [1]	average rate of change of LDL-C from the baseline (Least Square Mean) [2]
CC(C)c1nc(N(C)S(C)(=O)=O)nc(-c2ccc(F)cc2)c1/C=C/[C@@H](O)C[C@@H](O)CC(=O)O [Example R20, rosuvastatin]	−3.64 mmHg	−47.27%
CCCCC(=O)N(Cc1ccc(-c2ccccc2-c2nnn[nH]2)cc1)[C@H](C(=O)O)C(C)C [Example V160, valsartan]	−7.26 mmHg	−4.52%
